Laboratory results as given in ChEMBL document CHEMBL6074711, “Design, Synthesis, and Activity Evaluation of C-23-Modified 5-O-Mycaminosyltylonolide Derivatives” (ACS Med Chem Lett, 2024).
≈ marks a conversion by molar mass, not a printed value.

Assays:
Assay type in all cases: functional
Staphylococcus aureus [1] = experiment: Antibacterial activity against Staphylococcus aureus ATCC25923 under 10^5 CFU/ml of bacterial inoculum culture by absorbance based assay
[2] = system: Stenotrophomonas maltophilia; experiment: Antibacterial activity against Stenotrophomonas maltophilia ATCC17808 incubated for 16 to 20 hrs by broth microdilution method; conditions: time 16-20 hrs
Enterococcus faecalis = experiment: Antibacterial activity against Enterococcus faecalis ATCC29212 incubated for 16 to 20 hrs by broth microdilution method; conditions: time 16-20 hrs
Staphylococcus aureus [3] = experiment: Antibacterial activity against Staphylococcus aureus ATCC25923 under 10^7 CFU/ml of bacterial inoculum culture by absorbance based assay
Staphylococcus aureus [4] = experiment: Antibacterial activity against Staphylococcus aureus ATCC25923 under 10^4 CFU/ml of bacterial inoculum culture by absorbance based assay
Escherichia coli [5] = experiment: Antibacterial activity against Escherichia coli ATCC25922 incubated for 16 to 20 hrs by broth microdilution method; conditions: time 16-20 hrs
Staphylococcus aureus [6] = experiment: Antibacterial activity against Staphylococcus aureus ATCC25923 incubated for 16 to 20 hrs by broth microdilution method; conditions: time 16-20 hrs
Staphylococcus aureus [7] = experiment: Antibacterial activity against Staphylococcus aureus ATCC25923 under 10^6 CFU/ml of bacterial inoculum culture by absorbance based assay
Escherichia coli [8] = experiment: Antibacterial activity against drug-resistant Escherichia coli clinical isolate 1322 incubated for 16 to 20 hrs by broth microdilution method; conditions: time 16-20 hrs
Escherichia coli [9] = experiment: Antibacterial activity against Escherichia coli ATCC25922 under 10^6 CFU/ml of bacterial inoculum culture by absorbance based assay
Escherichia coli [10] = experiment: Antibacterial activity against drug-resistant Escherichia coli clinical isolate 1333 incubated for 16 to 20 hrs by broth microdilution method; conditions: time 16-20 hrs
Staphylococcus aureus [11] = experiment: Antibacterial activity against drug-resistant Staphylococcus aureus clinical isolate M20 incubated for 16 to 20 hrs by broth microdilution method; conditions: time 16-20 hrs
Escherichia coli [12] = experiment: Antibacterial activity against Escherichia coli ATCC25922 under 10^4 CFU/ml of bacterial inoculum culture by absorbance based assay
Escherichia coli [13] = experiment: Antibacterial activity against Escherichia coli ATCC25922 under 10^5 CFU/ml of bacterial inoculum culture by absorbance based assay
Escherichia coli [14] = experiment: Antibacterial activity against Escherichia coli ATCC25922 under 10^7 CFU/ml of bacterial inoculum culture by absorbance based assay

## C[C@@H](O)[C@H]1C(=O)N2C(C(=O)O)=C(S[C@@H]3CN[C@H](C(=O)N(C)C)C3)[C@H](C)[C@H]12 [MEROPENEM]
Staphylococcus aureus [1]
  MIC: 0.5 µg/mL (≈ 1.3 µM)
[2]
  MIC: 0.125 µg/mL (≈ 0.326 µM)
Enterococcus faecalis
  MIC: 0.063 µg/mL (≈ 0.164 µM)
Staphylococcus aureus [3]
  MIC: 2 µg/mL (≈ 5.22 µM)
Staphylococcus aureus [4]
  MIC: 0.25 µg/mL (≈ 0.652 µM)
Escherichia coli [5]
  MIC: 0.125 µg/mL (≈ 0.326 µM)
Staphylococcus aureus [6]
  MIC: 0.063 µg/mL (≈ 0.164 µM)
Staphylococcus aureus [7]
  MIC: 1 µg/mL (≈ 2.61 µM)

## CC[C@H]1OC(=O)C[C@@H](O)[C@H](C)[C@@H](O[C@@H]2O[C@H](C)[C@@H](O)[C@H](N(C)C)[C@H]2O)[C@@H](CCN(C)Cc2cn(-c3cnc4ccccc4c3)nn2)C[C@@H](C)C(=O)/C=C/C(C)=C/[C@@H]1CNCc1ccccc1
[2]
  MIC: 2 µg/mL (≈ 2.2 µM)
Enterococcus faecalis
  MIC: 4 µg/mL (≈ 4.39 µM)
Escherichia coli [5]
  MIC: 2 µg/mL (≈ 2.2 µM)
Staphylococcus aureus [6]
  MIC: 1 µg/mL (≈ 1.1 µM)

## CCc1ccc(NC[C@H]2/C=C(C)/C=C/C(=O)[C@H](C)C[C@H](CCN(C)Cc3cn(-c4cnc5ccccc5c4)nn3)[C@H](O[C@@H]3O[C@H](C)[C@@H](O)[C@H](N(C)C)[C@H]3O)[C@@H](C)[C@H](O)CC(=O)O[C@@H]2CC)cc1
[2]
  MIC: 2 µg/mL (≈ 2.16 µM)
Enterococcus faecalis
  MIC: 2 µg/mL (≈ 2.16 µM)
Escherichia coli [5]
  MIC: 2 µg/mL (≈ 2.16 µM)
Staphylococcus aureus [6]
  MIC: 2 µg/mL (≈ 2.16 µM)

## CC[C@H]1OC(=O)C[C@@H](O)[C@H](C)[C@@H](O[C@@H]2O[C@H](C)[C@@H](O)[C@H](N(C)C)[C@H]2O)[C@@H](CCN(C)Cc2cn(-c3cnc4ccccc4c3)nn2)C[C@@H](C)C(=O)/C=C/C(C)=C/[C@@H]1CNCc1cccc(Br)c1
[2]
  MIC: 8 µg/mL (≈ 8.09 µM)
Enterococcus faecalis
  MIC: 8 µg/mL (≈ 8.09 µM)
Escherichia coli [5]
  MIC: 8 µg/mL (≈ 8.09 µM)
Staphylococcus aureus [6]
  MIC: 4 µg/mL (≈ 4.04 µM)

## CC[C@H]1OC(=O)C[C@@H](O)[C@H](C)[C@@H](O[C@@H]2O[C@H](C)[C@@H](O[C@H]3C[C@@](C)(O)[C@@H](O)[C@H](C)O3)[C@H](N(C)C)[C@H]2O)[C@@H](CC=O)C[C@@H](C)C(=O)/C=C/C(C)=C/[C@@H]1CO[C@@H]1O[C@H](C)[C@@H](O)[C@@H](OC)[C@H]1OC [TYLOSIN]
Staphylococcus aureus [1]
  MIC: 2 µg/mL (≈ 2.18 µM)
Escherichia coli [8]
  MIC: > 32 µg/mL
Escherichia coli [9]
  MIC: 2 µg/mL (≈ 2.18 µM)
[2]
  MIC: > 32 µg/mL
Enterococcus faecalis
  MIC: 0.5 µg/mL (≈ 0.546 µM)
Escherichia coli [10]
  MIC: > 32 µg/mL
Staphylococcus aureus [3]
  MIC: 4 µg/mL (≈ 4.37 µM)
Staphylococcus aureus [11]
  MIC: 0.5 µg/mL (≈ 0.546 µM)
Escherichia coli [12]
  MIC: 1 µg/mL (≈ 1.09 µM)
Staphylococcus aureus [4]
  MIC: 1 µg/mL (≈ 1.09 µM)
Escherichia coli [13]
  MIC: 1 µg/mL (≈ 1.09 µM)
Escherichia coli [5]
  MIC: > 32 µg/mL
Escherichia coli [14]
  MIC: 2 µg/mL (≈ 2.18 µM)
Staphylococcus aureus [6]
  MIC: 0.5 µg/mL (≈ 0.546 µM)
Staphylococcus aureus [7]
  MIC: 4 µg/mL (≈ 4.37 µM)

## CC[C@H]1OC(=O)C[C@@H](O)[C@H](C)[C@@H](O[C@@H]2O[C@H](C)[C@@H](O)[C@H](N(C)C)[C@H]2O)[C@@H](CCN(C)Cc2cn(-c3cnc4ccccc4c3)nn2)C[C@@H](C)C(=O)/C=C/C(C)=C/[C@@H]1CN1CCCc2ccccc21
[2]
  MIC: 4 µg/mL (≈ 4.27 µM)
Enterococcus faecalis
  MIC: 2 µg/mL (≈ 2.14 µM)
Escherichia coli [5]
  MIC: 2 µg/mL (≈ 2.14 µM)
Staphylococcus aureus [6]
  MIC: 2 µg/mL (≈ 2.14 µM)

## CC[C@H]1OC(=O)C[C@@H](O)[C@H](C)[C@@H](O[C@@H]2O[C@H](C)[C@@H](O)[C@H](N(C)C)[C@H]2O)[C@@H](CCNCc2cn(-c3cnc4ccccc4c3)nn2)C[C@@H](C)C(=O)/C=C/C(C)=C/[C@@H]1CNCc1ccc(Cl)cc1
[2]
  MIC: 1 µg/mL (≈ 1.07 µM)
Enterococcus faecalis
  MIC: 2 µg/mL (≈ 2.15 µM)
Escherichia coli [5]
  MIC: 2 µg/mL (≈ 2.15 µM)
Staphylococcus aureus [6]
  MIC: 1 µg/mL (≈ 1.07 µM)

## CC[C@H]1OC(=O)C[C@@H](O)[C@H](C)[C@@H](O[C@@H]2O[C@H](C)[C@@H](O)[C@H](N(C)C)[C@H]2O)[C@@H](CCN(C)Cc2cn(-c3cnc4ccccc4c3)nn2)C[C@@H](C)C(=O)/C=C/C(C)=C/[C@@H]1CNCc1cc(F)cc(F)c1
[2]
  MIC: 1 µg/mL (≈ 1.06 µM)
Enterococcus faecalis
  MIC: 1 µg/mL (≈ 1.06 µM)
Escherichia coli [5]
  MIC: 1 µg/mL (≈ 1.06 µM)
Staphylococcus aureus [6]
  MIC: 1 µg/mL (≈ 1.06 µM)

## CC[C@H]1OC(=O)C[C@@H](O)[C@H](C)[C@@H](O[C@@H]2O[C@H](C)[C@@H](O)[C@H](N(C)C)[C@H]2O)[C@@H](CCNCc2cn(-c3cnc4ccccc4c3)nn2)C[C@@H](C)C(=O)/C=C/C(C)=C/[C@@H]1CNc1ccc(C)cc1
[2]
  MIC: 8 µg/mL (≈ 8.93 µM)
Enterococcus faecalis
  MIC: 2 µg/mL (≈ 2.23 µM)
Escherichia coli [5]
  MIC: 2 µg/mL (≈ 2.23 µM)
Staphylococcus aureus [6]
  MIC: 2 µg/mL (≈ 2.23 µM)

## CC[C@H]1OC(=O)C[C@@H](O)[C@H](C)[C@@H](O[C@@H]2O[C@H](C)[C@@H](O)[C@H](N(C)C)[C@H]2O)[C@@H](CCNCc2cn(-c3cnc4ccccc4c3)nn2)C[C@@H](C)C(=O)/C=C/C(C)=C/[C@@H]1CNc1ccc(Br)cc1
[2]
  MIC: 1 µg/mL (≈ 1.04 µM)
Enterococcus faecalis
  MIC: 2 µg/mL (≈ 2.08 µM)
Escherichia coli [5]
  MIC: 1 µg/mL (≈ 1.04 µM)
Staphylococcus aureus [6]
  MIC: 2 µg/mL (≈ 2.08 µM)

## CC[C@H]1OC(=O)C[C@@H](O)[C@H](C)[C@@H](O[C@@H]2O[C@H](C)[C@@H](O)[C@H](N(C)C)[C@H]2O)[C@@H](CCNCc2cn(-c3cnc4ccccc4c3)nn2)C[C@@H](C)C(=O)/C=C/C(C)=C/[C@@H]1CN(CC)Cc1ccccc1
[2]
  MIC: 1 µg/mL (≈ 1.08 µM)
Enterococcus faecalis
  MIC: 2 µg/mL (≈ 2.16 µM)
Escherichia coli [5]
  MIC: 1 µg/mL (≈ 1.08 µM)
Staphylococcus aureus [6]
  MIC: 2 µg/mL (≈ 2.16 µM)
